The values that follow come from PubChem BioAssay AID1918945 (Molecular Pharmacology Branch, DTP, NCI, 2023).

Where “and” joins values, the source holds several entries; their conditions need not be identical. Equal entries are not always repeated.

The test system of this assay is 883617-216-R-J1-PDC complex spheroid viability. Briefly: Anticancer human tumor 883617-216-R-J1-PDC patient-derived bladder carcinoma cell line growth inhibition. The settings on record: for viability, T/C: stronger effect = lower value. In outline:
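Multicellular complex spheroids of tumor cells with human endothelial cells (HUVEC) and mesenchymal stem cells; the LSD1 inhibitor iadademstat was combined with standard-of-care or investigational agents. Top concentration at or near clinical Cmax, half-log dilutions; final DMSO ≤0.25%.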

Setting [1] is: curve of first compound, second compound 0.1 µM.
Where [2] appears, read: curve of first compound, second compound 0.316 µM.
Setting [3] is: curve of first compound, second compound 1 µM.
Where [4] appears, read: curve of first compound, second compound 3.16 µM.
Setting [5] is: curve of first compound, second compound 10 µM.
Where [6] appears, read: second compound 0.1 µM, first compound 0.0316 µM.
[7] abbreviates: second compound 0.1 µM, first compound 0.1 µM.
Setting [8] is: second compound 0.1 µM, first compound 0.316 µM.
[9] abbreviates: second compound 0.1 µM, first compound 1 µM.
The mark [10] stands for this setting: second compound 0.1 µM, first compound 3.16 µM.
The mark [11] stands for this setting: second compound 0.1 µM, first compound 10 µM.
Where [12] appears, read: second compound 0.316 µM, first compound 0.0316 µM.
Where [13] appears, read: second compound 0.316 µM, first compound 0.1 µM.
Setting [14] is: second compound 0.316 µM, first compound 0.316 µM.
[15] abbreviates: second compound 0.316 µM, first compound 1 µM.
Setting [16] is: second compound 0.316 µM, first compound 3.16 µM.
Setting [17] is: second compound 0.316 µM, first compound 10 µM.
Setting [18] is: second compound 1 µM, first compound 0.0316 µM.
Setting [19] is: second compound 1 µM, first compound 0.1 µM.
Setting [20] is: second compound 1 µM, first compound 0.316 µM.
[21] abbreviates: second compound 1 µM, first compound 1 µM.
The mark [22] stands for this setting: second compound 1 µM, first compound 3.16 µM.
Where [23] appears, read: second compound 1 µM, first compound 10 µM.
[24] abbreviates: second compound 3.16 µM, first compound 0.0316 µM.
Setting [25] is: second compound 3.16 µM, first compound 0.1 µM.
[26] abbreviates: second compound 3.16 µM, first compound 0.316 µM.
[27] abbreviates: second compound 3.16 µM, first compound 1 µM.
Setting [28] is: second compound 3.16 µM, first compound 3.16 µM.
[29] abbreviates: second compound 3.16 µM, first compound 10 µM.
[30] abbreviates: second compound 10 µM, first compound 0.0316 µM.
[31] abbreviates: second compound 10 µM, first compound 0.1 µM.
[32] abbreviates: second compound 10 µM, first compound 0.316 µM.
Setting [33] is: second compound 10 µM, first compound 1 µM.
The mark [34] stands for this setting: second compound 10 µM, first compound 3.16 µM.
Where [35] appears, read: second compound 10 µM, first compound 10 µM.
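Note: exposure lasted seven days after three days of spheroid growth.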
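Throughout, for viability, T/C: 100% = DMSO vehicle control luminescence.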

In general, IC50 refers to the midpoint of a concentration-inhibition curve. The viability, T/C is the result in the treated group divided by that in the control group, in per cent. Take `CCc1c2c(nc3ccc(O)cc13)-c1cc3c(c(=O)n1C2)COC(=O)[C@]3(O)CC` + NC1CCC(NC2CC2c2ccccc2)CC1: the IC50 under setting [1] was less than 0.000949 µM; the IC50 under setting [2] is less than 0.000949 µM; the IC50 under setting [3] was less than 0.000949 µM; the IC50 under setting [4] was less than 0.000949 µM; the IC50 under setting [5] is less than 0.000949 µM. The viability, T/C (second compound 0.1 µM, first compound 0.000949 µM) is 34.6%; the viability, T/C (second compound 0.1 µM, first compound 0.003 µM) is 27.8%; the viability, T/C (second compound 0.1 µM, first compound 0.00949 µM) is 24.9%; the viability, T/C (second compound 0.1 µM, first compound 0.03 µM) is 24.2%; the viability, T/C (second compound 0.1 µM, first compound 0.0949 µM) was 5.01%; the viability, T/C (second compound 0.1 µM, first compound 0.3 µM) is 2.12%. In addition, the viability, T/C runs as follows: (second compound 0.316 µM, first compound 0.000949 µM) 35.5%; (second compound 0.316 µM, first compound 0.003 µM) 28.4%; (second compound 0.316 µM, first compound 0.00949 µM) 25%; (second compound 0.316 µM, first compound 0.03 µM) 22.8%; (second compound 0.316 µM, first compound 0.0949 µM) 3.48%; (second compound 0.316 µM, first compound 0.3 µM) 0.41%. In addition, the viability, T/C was 36.2% (second compound 1 µM, first compound 0.000949 µM); 24.4% (second compound 1 µM, first compound 0.003 µM); 26.4% (second compound 1 µM, first compound 0.00949 µM); 23.7% (second compound 1 µM, first compound 0.03 µM); 4.59% (second compound 1 µM, first compound 0.0949 µM); 0.62% (second compound 1 µM, first compound 0.3 µM). In addition, the viability, T/C (second compound 3.16 µM, first compound 0.000949 µM) was 31.6%; the viability, T/C (second compound 3.16 µM, first compound 0.003 µM) is 25.7%; the viability, T/C (second compound 3.16 µM, first compound 0.00949 µM) was 26.7%; the viability, T/C (second compound 3.16 µM, first compound 0.03 µM) is 23.6%; the viability, T/C (second compound 3.16 µM, first compound 0.0949 µM) was 5.29%; the viability, T/C (second compound 3.16 µM, first compound 0.3 µM) is 1.43%. The viability, T/C is, setting by setting: (second compound 10 µM, first compound 0.000949 µM) 30.6%; (second compound 10 µM, first compound 0.003 µM) 25.7%; (second compound 10 µM, first compound 0.00949 µM) 25.2%; (second compound 10 µM, first compound 0.03 µM) 25.6%; (second compound 10 µM, first compound 0.0949 µM) 3.82%; (second compound 10 µM, first compound 0.3 µM) 0.29%.

Consider `CC1(C)CCC(CN2CCN(c3ccc(C(=O)NS(=O)(=O)c4ccc(NCC5CCOCC5)c([N+](=O)[O-])c4)c(Oc4cnc5[nH]ccc5c4)c3)CC2)=C(c2ccc(Cl)cc2)C1` + NC1CC1c1ccc(-c2cccc(O)c2)cc1, for which the IC50 came out at 7.41 µM under setting [1]; 7.2 µM under setting [2]; 6.43 µM under setting [3]; 6.41 µM under setting [4]; 4.92 µM under setting [5]. The viability, T/C reads like this: under setting [6], 115%; under setting [7], 116%; under setting [8], 125%; under setting [9], 129%; under setting [10], 117%; under setting [11], 26.2%. The viability, T/C under setting [12] is 128%; the viability, T/C under setting [13] is 130%; the viability, T/C under setting [14] was 131%; the viability, T/C under setting [15] was 129%; the viability, T/C under setting [16] is 118%; the viability, T/C under setting [17] was 23%. The viability, T/C was 115% under setting [18]; 121% under setting [19]; 111% under setting [20]; 121% under setting [21]; 102% under setting [22]; 17.4% under setting [23]. In addition, the viability, T/C is, setting by setting: under setting [24], 124%; under setting [25], 109%; under setting [26], 106%; under setting [27], 115%; under setting [28], 107%; under setting [29], 14%. Besides, the viability, T/C under setting [30] is 90.9%; the viability, T/C under setting [31] is 96.8%; the viability, T/C under setting [32] is 79.6%; the viability, T/C under setting [33] is 83.1%; the viability, T/C under setting [34] was 75.5%; the viability, T/C under setting [35] is 11.2%.

Consider `CC(C)c1c(-c2ccccc2)nc2c(C#N)c[nH]n2c1=O` + NC1CCC(NC2CC2c2ccccc2)CC1, for which the IC50 by setting is: under setting [1], greater than 10 µM; under setting [2], greater than 10 µM; under setting [3], greater than 10 µM; under setting [4], greater than 10 µM; under setting [5], greater than 10 µM. Also, the viability, T/C is 106% under setting [6]; 102% under setting [7]; 101% under setting [8]; 103% under setting [9]; 97.5% under setting [10]; 93.8% under setting [11]. Further, the viability, T/C reads like this: under setting [12], 107%; under setting [13], 109%; under setting [14], 108%; under setting [15], 105%; under setting [16], 103%; under setting [17], 95%. For the same compound, the viability, T/C is 97.3% under setting [18]; 91.8% under setting [19]; 101% under setting [20]; 95% under setting [21]; 93.6% under setting [22]; 86% under setting [23]. In addition, the viability, T/C reads like this: under setting [24], 104%; under setting [25], 99.7%; under setting [26], 97.8%; under setting [27], 98.2%; under setting [28], 91.2%; under setting [29], 89.9%. In addition, the viability, T/C reads like this: under setting [30], 103%; under setting [31], 106%; under setting [32], 112%; under setting [33], 98.2%; under setting [34], 95.2%; under setting [35], 86.1%.

Turning to `NC1CC1c1ccc(-c2cccc(O)c2)cc1` (centres undefined), the viability, T/C (compound 0.1 µM) was 107%. The IC50 (compound alone, run of 12/07/2021) is greater than 10 µM.

Take `Nc1ccccc1NC(=O)c1ccc(CNC(=O)OCc2cccnc2)cc1`: the viability, T/C by setting is: (compound 0.00949 µM) 110% and 105%; (compound 0.03 µM) 94.2% and 104%; (compound 0.0949 µM) 64.6% and 56.3%; (compound 0.3 µM) 33.3% and 36%; (compound 0.949 µM) 15.7% and 17.6%; (compound 3 µM) 0.87% and 1.11%. For the same compound, under “curve of compound”, the IC50 was 0.167 µM and 0.163 µM.
